Experimental data: publication PMC8318231, “Rate-of-Kill (RoK) assays to triage large compound sets for Chagas disease drug discovery: Application to GSK Chagas Box” (PLoS Neglected Tropical Diseases, 2021)

Tests used:
[1] = test system: T. cruzi Tulahuen trypomastigotes; experiment: T. cruzi trypomastigote assay (Cell Titer-Glo viability, ATP luminescence); type: cell-based, Trypanosoma cruzi; conditions: for Trypomastigotes pIC50 48 hours: 48 hours incubation; for Trypomastigotes pIC50 48 hours / Trypomastigotes pIC50 72 hours: pIC50 = -log10 IC50 in molar units; for Trypomastigotes pIC50 72 hours: 72 hours incubation; for 48 pIC50 / 72 pIC50: trypomastigote assay; for 48 pIC50: 48 h; for 72 pIC50: 72 h
Method: T. cruzi Tulahuen trypomastigotes obtained from the supernatants of LLC-MK2 infected cultures in a 225 cm^2 T-Flasks harvested between days 5 and 8 of infection. Trypomastigotes (5 × 10^4 per well) in 50 μl of DMEM/ 2% FBS were dispensed into white 384 plates (Greiner) pre-stamped with 250 nl compound a single-shot final concentration of 5 μM, or in dose response. […] Cell Titer-Glo cell viability solution (Promega) was added to each well (50 μL) incubated at room temperature for 10 min and luminescence read by Envision plate reader (Perkin Elmer). This assay quantifies the amount of ATP present which is directly proportional to the number of metabolically active cells. All data were normalised (100% effect control for no cells and 0% effect control for DMSO). This assay was adapted from MacLean et al., 2018 [22].

TcCYP51 = conditions: formerly reported; cited from earlier work

Row | SMILES | Trypomastigotes pIC50 48 hours [1] | Trypomastigotes pIC50 72 hours [1] | 48 pIC50 ([1]; figure 1A) | 72 pIC50 ([1]; figure 1A) | 72 pIC50 ([1]; figure 1B) | CYP51 pIC50 (TcCYP51)
1 | Cn1c(CN2CCN(c3ncc(C(F)(F)F)cc3Cl)CC2)nc2ccncc21 [TCMDC-143276] | < 4.3 | < 4.3 | < 4.3 | < 4.3 | < 4.3 | 7.1
2 | O=C(Nc1nc(-c2ccc(S(=O)(=O)N3CCOCC3)cc2)cs1)c1ccc([N+](=O)[O-])cc1 [TCMDC-143282] | 5.8 | 5.8 | 5.8 | 5.8 | 5.8 | < 4
3 | Cc1ccc2sc(NC(=O)Cn3cnc([N+](=O)[O-])n3)nc2c1 [TCMDC-143284] | 5.6 | 5.3 |  |  |  | < 4
4 | CCN(CC)S(=O)(=O)c1ccc(Cn2nc(C(=O)Nc3ccncn3)c3ccccc32)cc1 [TCMDC-143288] | < 4.3 | < 4.3 | < 4.3 | < 4.3 | < 4.3 | 6.8
5 | CC(C(=O)Nc1ccccc1F)N(C)CC(=O)Nc1cccc2ccccc12 (centres unmarked) [TCMDC-143293] |  | < 4.3 |  |  |  | 4.8
6 | Cc1ccc2ccc(C(Nc3ccccn3)c3cccnc3)c(O)c2n1 (centres unmarked) [TCMDC-143308] | 5.7 | 5.4 |  |  |  | 7.3
7 | COc1ccccc1C=CCN1C[C@H]2CCC[C@@H](C1)C2(O)c1cccnc1 (some centres unmarked) [TCMDC-143309] | < 4.3 | 4.5 |  |  |  | 6.9
8 | O=C(NCC(c1cccnc1)N1CCc2ccccc2C1)C(=O)Nc1cccc(Cl)c1 (centres unmarked) [TCMDC-143329] | 4.8 | 4.8 | 4.8 | 4.8 | 4.8 | 7.2
9 | CCC1Oc2cc(S(=O)(=O)N(C)CC(=O)N3CCc4ccccc4C3)c(C)cc2NC1=O (centres unmarked) [TCMDC-143332] | < 4.3 | < 4.3 | < 4.3 | < 4.3 | < 4.3 | 6.1
10 | Cc1nc(N2CCC(C(=O)N3CCC(O)(c4cccnc4)CC3)CC2)nc2ccc(C(C)C)cc12 [TCMDC-143333] | 4.5 | 4.4 |  |  |  | 6.9
11 | CN(Cc1ccc(F)cc1)c1ccc(OCC(=O)N2CCCCC2c2cccnc2)nn1 (centres unmarked) [TCMDC-143334] | < 4.3 | < 4.3 | < 4.3 | < 4.3 | < 4.3 | 7.3
12 | Cc1ccc(NC(=O)C(C)n2nc([N+](=O)[O-])c(Br)c2C)cc1Cl (centres unmarked) [TCMDC-143338] | 5.5 | 5.3 |  |  |  | < 4
13 | CN(Cc1nc2ccccc2s1)C(=O)C=Cc1cc2ccccc2o1 [TCMDC-143354] | 4.4 | < 4.3 |  |  |  | 6.8
14 | Cc1cccc(NS(=O)(=O)c2cnc3sc(C)cn3c2=O)c1 [TCMDC-143372] | < 4.3 | < 4.3 | < 4.3 | < 4.3 | < 4.3 | < 4
15 | Cc1ccc(CNC2CCN(C[C@@H]3Cn4c(=O)ccc5ccc(=O)n3c54)CC2)cc1F [TCMDC-143403] | < 4.3 | < 4.3 | < 4.3 | < 4.3 | < 4.3 | < 4
16 | CN(C)c1ccc(-c2cc3nccnc3c(OC[C@H]3CCCNC3)n2)cn1.Cl [TCMDC-143408] | 4.5 | 5.2 |  |  |  | < 4
17 | COc1ccc(-c2ccc3nnc(-c4ccc(O)c(OC)c4)n3c2)cn1 [TCMDC-143413] | < 4.3 | < 4.3 | < 4.3 | < 4.3 | < 4.3 | < 4
18 | CN(C)c1ncc(-c2cncn2CCOc2ccc(Cl)cc2)cn1 [TCMDC-143415] | 4.5 | 4.5 | 4.5 | 4.5 | 4.5 | 7.3
19 | CCC(c1ccc(F)cc1)n1cncc1-c1cnn(C)c1 (centres unmarked) [TCMDC-143416] | < 4.3 | < 4.3 | < 4.3 | < 4.3 | < 4.3 | 7.1

Row | SMILES | Trypomastigotes pIC50 48 hours [1] | Trypomastigotes pIC50 72 hours [1] | 48 pIC50 ([1]; figure 1A) | 72 pIC50 ([1]; figure 1A) | 72 pIC50 ([1]; figure 1B) | CYP51 pIC50 (TcCYP51)
20 | O=C(Nc1ncc([N+](=O)[O-])s1)C1CC1 [TCMDC-143417] | 6.1 | 6 |  |  |  | < 4
21 | Fc1ccccc1N1C[C@H]2CCN(c3cccnc3)C[C@H]2C1.O=C(O)C(F)(F)F [TCMDC-143422] | 4.6 | < 4.3 |  |  |  | 7.2
22 | CC(Cn1ccnc1)NC(=O)C=Cc1ccc(Cl)cc1 (centres unmarked) [TCMDC-143423] | < 4.3 | < 4.3 | < 4.3 | < 4.3 | < 4.3 | 6.8
23 | CN1CCN(c2nc(-c3ccc(Cl)cc3)c3c(N)n(C)nc3n2)CC1 [TCMDC-143426] | < 4.3 | < 4.3 | < 4.3 | < 4.3 | < 4.3 | < 4
24 | COc1ccc(C)cc1-c1csc(NC(=O)C(C)n2ccnc2)n1 (centres unmarked) [TCMDC-143430] | < 4.3 | < 4.3 | < 4.3 | < 4.3 | < 4.3 | 7.4
25 | COc1ccc2nc(N(Cc3cccnc3)C(=O)C3CCC3)sc2c1 [TCMDC-143437] | < 4.3 | < 4.3 | < 4.3 | < 4.3 | < 4.3 | 7.2
26 | c1cncc(CN(Cc2ccco2)Cc2cn[nH]c2-c2cccs2)c1 [TCMDC-143440] | 4.4 | < 4.3 |  |  |  | 7.1
27 | O=C(NCc1nnc2n1CCCCC2)c1ccc(-c2ccc(F)cc2)o1 [TCMDC-143446] | < 4.3 | 4.7 |  |  |  | 4.1
28 | c1cc(-c2ncc(-c3ccn[nH]3)s2)ccn1 [TCMDC-143461] | < 4.3 | < 4.3 | < 4.3 | < 4.3 | < 4.3 | 7.4
29 | CNc1cncc(C2CCCN2C(=O)Cc2coc3cc(C)ccc23)n1 (centres unmarked) [TCMDC-143464] | < 4.3 | < 4.3 | < 4.3 | < 4.3 | < 4.3 | 7.6
30 | CNc1cncc(C2CCCN2C(=O)Cc2ccc3ccccc3c2)n1 (centres unmarked) [TCMDC-143465] | < 4.3 | < 4.3 | < 4.3 | < 4.3 | < 4.3 | 7
31 | O=C(NCCc1nc(-c2ccc(F)c(F)c2)n[nH]1)C1CCCCC1 [TCMDC-143466] | < 4.3 | 4.5 |  |  |  | 4.6
32 | COc1ccc(CN2CCCCC2c2nc(-c3cccnc3)no2)cc1 (centres unmarked) [TCMDC-143467] | < 4.3 | < 4.3 | < 4.3 | < 4.3 | < 4.3 | 6.7
33 | COc1ccc(C(=O)N2CCC(Nc3cccnc3)C2)c(OC)n1 (centres unmarked) [TCMDC-143474] | < 4.3 | < 4.3 | < 4.3 | < 4.3 | < 4.3 | 7.2
34 | CC(Cn1ccnc1)NC(=O)COc1ccc(Cl)c(Cl)c1 (centres unmarked) [TCMDC-143479] | < 4.3 | < 4.3 | < 4.3 | < 4.3 | < 4.3 | 7.2
35 | O=C(c1cnn(-c2ccccc2)n1)N1CCCC(n2ccnc2)C1 (centres unmarked) [TCMDC-143492] | < 4.3 | < 4.3 | < 4.3 | < 4.3 | < 4.3 | 7.1
36 | Cc1ccccc1OCC(=O)N1CCCN(c2cccnn2)CC1 [TCMDC-143495] | < 4.3 | < 4.3 | < 4.3 | < 4.3 | < 4.3 | 7.1
37 | CC(Cn1ccnc1)NC(=O)C1CC1c1cccc(Cl)c1Cl (centres unmarked) [TCMDC-143506] | < 4.3 | < 4.3 | < 4.3 | < 4.3 | < 4.3 | 6.9
